According to patent US20250230193A1, “CYCLIC COMPOUND HAVING SELECTIVE KRAS INHIBITORY EFFECT ON HRAS AND NRAS” (CHUGAI SEIYAKU KABUSHIKI KAISHA, priority 2022, published 2025):
Where a SMILES comes first, the peptide text is derived from it. Bridges are numbered along the chain shown (N, C = ends). [ ]: non-standard residue; d: D form. The star is where a group is joined. hPhe(3-Cl-4-CF3) = N[C@@H](CCc1ccc(C(F)(F)F)c(Cl)c1)C(=O)O; NPrPhe(4-CF3) = CCCN[C@@H](Cc1ccc(C(F)(F)F)cc1)C(=O)O; NEtPhe(4-Me) = CCN[C@@H](Cc1ccc(C)cc1)C(=O)O; NMePhe(4-Me) = CN[C@@H](Cc1ccc(C)cc1)C(=O)O; NMeGly(cPent) = CN[C@H](C(=O)O)C1CCCC1; Hyp = O=C(O)[C@@H]1C[C@@H](O)CN1; NMeD = CN[C@@H](CC(=O)O)C(=O)O; NMeL = CN[C@@H](CC(C)C)C(=O)O; Morpholide = C1CN(*)CCO1; NMeA = CN[C@@H](C)C(=O)O; Ac5c = NC1(C(=O)O)CCCC1; Aze = O=C(O)[C@@H]1CCN1; NEtG = CCNCC(=O)O; Sar = CNCC(=O)O

Legend:
[1] = target: GDP-bound NRAS wild-type protein (Homo sapiens, UniProt P01111); assay: Binding to NRAS by surface plasmon resonance (SPR), Single Cycle Kinetics; conditions: for NRAS/KRAS (ratio of KD value for NRAS to KD value for KRAS): GDP-bound NRAS wild-type vs GDP-bound KRAS wild-type
GDP-bound NRAS wild-type protein, sequence (P01111 whole entry): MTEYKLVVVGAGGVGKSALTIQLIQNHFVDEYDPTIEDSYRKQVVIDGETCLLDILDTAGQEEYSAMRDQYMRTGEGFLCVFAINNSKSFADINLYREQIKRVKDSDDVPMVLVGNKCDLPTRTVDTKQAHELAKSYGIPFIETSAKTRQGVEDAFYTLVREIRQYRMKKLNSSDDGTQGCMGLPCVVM

[2] = target: GDP-bound HRAS wild-type protein (Homo sapiens, UniProt P01112); assay: Binding to HRAS by surface plasmon resonance (SPR), Single Cycle Kinetics; conditions: for HRAS/KRAS (ratio of KD value for HRAS to KD value for KRAS): GDP-bound HRAS wild-type vs GDP-bound KRAS wild-type
GDP-bound HRAS wild-type protein, sequence (P01112 whole entry): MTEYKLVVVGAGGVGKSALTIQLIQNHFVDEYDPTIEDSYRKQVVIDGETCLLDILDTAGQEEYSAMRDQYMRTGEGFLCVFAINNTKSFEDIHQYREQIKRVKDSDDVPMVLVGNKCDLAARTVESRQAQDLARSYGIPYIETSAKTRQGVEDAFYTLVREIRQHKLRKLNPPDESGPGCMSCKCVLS

For `CCO[C@@H]1C[C@H]2C(=O)NC3(CC(C)(C)C3)C(=O)N(C)[C@@H](C3CCCC3)C(=O)N(C)[C@H](C(=O)N(C)C)CC(=O)N(C)[C@H]3CCCC/C=C/c4ccc(cc4)C[C@@H](C(=O)N(C)CC(=O)N[C@@H](CCc4ccc(C(F)(F)F)c(OC)c4)C(=O)N2C1)N1CC/C=C\C[C@@H](C1=O)N(C)C(=O)CN(C)C(=O)[C@H]([C@@H](C)CC)NC3=O` [PP1832], the “NRAS/KRAS (ratio of KD value for NRAS to KD value for KRAS)” value ([1]; SPR) was “B (a compound having 3 or more and less than 10 is denoted as B)” and the “HRAS/KRAS (ratio of KD value for HRAS to KD value for KRAS)” value ([2]; SPR) was “B (a compound having 3 or more and less than 10 is denoted as B)”.

For `CC[C@H](C)[C@@H]1NC(=O)[C@H](CC(C)C)N(C)C(=O)C[C@@H](C(=O)N2CCOCC2)N(C)C(=O)[C@H](C2CCCC2)N(C)C(=O)C2(CCCC2)NC(=O)[C@@H]2CCCN2C(=O)[C@H](CCc2ccc(C(F)(F)F)c(Cl)c2)NC(=O)CN(CC)C(=O)[C@H](Cc2ccc(C)cc2)N(C)C(=O)[C@@H]2CCN2C(=O)[C@H](C)N(C)C1=O` [PP0004] ([NMeL]I[NMeA][Aze][NMePhe(4-Me)][NEtG][hPhe(3-Cl-4-CF3)]P[Ac5c][NMeGly(cPent)][NMeD]-Morpholide; lactam N-11), the “NRAS/KRAS (ratio of KD for GDP-bound NRAS wild-type to KD for KRAS)” value ([1]; SPR) was “C (A compound having a KD ratio of 0.1 or more and less than 3 is denoted as C)” and the “HRAS/KRAS (ratio of KD for GDP-bound HRAS wild-type to KD for KRAS)” value ([2]; SPR) was “C (A compound having a KD ratio of 0.1 or more and less than 3 is denoted as C)”.

In the case of `CCO[C@@H]1C[C@H]2C(=O)NC3(CCCC3)C(=O)N(C)[C@@H](C3CCCC3)C(=O)N(C)[C@H](C(=O)N3CCOCC3)CC(=O)N(C)[C@@H](CC(C)C)C(=O)N[C@@H]([C@@H](C)CC)C(=O)N(C)CC(=O)N(C)CC(=O)N(CC)[C@@H](Cc3ccc(C)cc3)C(=O)N(C)CC(=O)N[C@@H](CCc3ccc(C(F)(F)F)c(Cl)c3)C(=O)N2C1` [PP0042] ([NMeL]I[Sar][Sar][NEtPhe(4-Me)][Sar][hPhe(3-Cl-4-CF3)][Hyp](Et)[Ac5c][NMeGly(cPent)][NMeD]-Morpholide; lactam N-11), the “NRAS/KRAS (ratio of KD for GDP-bound NRAS wild-type to KD for KRAS)” value ([1]; SPR) is reported as “C (A compound having a KD ratio of 0.1 or more and less than 3 is denoted as C)” and the “HRAS/KRAS (ratio of KD for GDP-bound HRAS wild-type to KD for KRAS)” value ([2]; SPR) is reported as “C (A compound having a KD ratio of 0.1 or more and less than 3 is denoted as C)”.

`CCCN1C(=O)CN(C)C(=O)[C@@H]2CCN2C(=O)[C@H]([C@@H](C)CC)NC(=O)[C@H](CC(C)C)N(C)C(=O)C[C@@H](C(=O)N2CCOCC2)N(C)C(=O)[C@H](C2CCCC2)N(C)C(=O)C2(CCCC2)NC(=O)CN(C)C(=O)[C@H](CCc2ccc(C(F)(F)F)c(Cl)c2)NC(=O)CN(C)C(=O)[C@@H]1Cc1ccc(C(F)(F)F)cc1` [PP0314] ([NMeL]I[Aze][Sar][NPrPhe(4-CF3)][Sar][hPhe(3-Cl-4-CF3)][Sar][Ac5c][NMeGly(cPent)][NMeD]-Morpholide; lactam N-11) was tested, and the “NRAS/KRAS (ratio of KD for GDP-bound NRAS wild-type to KD for KRAS)” value ([1]; SPR) was “B (a compound having 3 or more and less than 10 is denoted as B)” and the “HRAS/KRAS (ratio of KD for GDP-bound HRAS wild-type to KD for KRAS)” value ([2]; SPR) was “C (A compound having a KD ratio of 0.1 or more and less than 3 is denoted as C)”.

In the case of `CCO[C@@H]1C[C@H]2C(=O)NC3(CCCC3)C(=O)N(C)[C@@H](C3CCCC3)C(=O)N(C)[C@H](C(=O)N3CCOCC3)CC(=O)N(C)[C@@H](CC(C)C)C(=O)N[C@@H]([C@@H](C)CC)C(=O)N(C)CC(=O)N(C)[C@H]3CCCCCN(C3=O)[C@@H](Cc3ccc(C(F)(F)F)cc3)C(=O)N(C)CC(=O)N[C@@H](CCc3cc(F)c(C(F)(F)F)c(F)c3)C(=O)N2C1` [PP0492], the “NRAS/KRAS (ratio of KD value with respect to GDP-bound NRAS wild-type protein to KD value with respect to KRAS)” value ([1]; SPR) is reported as “B (a compound having 3 or more and less than 10 is denoted as B)” and the “HRAS/KRAS (ratio of KD value with respect to GDP-bound HRAS wild-type protein to KD value with respect to KRAS)” value ([2]; SPR) is reported as “B (a compound having 3 or more and less than 10 is denoted as B)”.

With `CCCOC[C@H]1C(=O)N[C@@H]([C@@H](C)CC)C(=O)N(C)CC(=O)N(C)[C@H]2C/C=C\CCN(C2=O)[C@@H](Cc2ccc(C(F)(F)F)cc2)C(=O)N(C)CC(=O)N[C@@H](CCc2ccc(C(F)(F)F)c(OC)c2)C(=O)N2C[C@H](OCC)C[C@H]2C(=O)NC2(CC(C)(C)C2)C(=O)N(C)[C@@H](C2CCCC2)C(=O)N(C)[C@H](C(=O)N(C)C)CC(=O)N1C` [PP1657] the “NRAS/KRAS (ratio of KD value for NRAS to KD value for KRAS)” value ([1]; SPR) was “A (a compound having 10 or more and less than 20 is denoted as A)” and the “HRAS/KRAS (ratio of KD value for HRAS to KD value for KRAS)” value ([2]; SPR) was “B (a compound having 3 or more and less than 10 is denoted as B)”.

With `CC[C@H](C)[C@@H]1NC(=O)[C@@H]2CCC/C=C/c3ccc(cc3)C[C@@H](C(=O)N(C)CC(=O)N[C@@H](CCc3ccc(Cl)c(Cl)c3)C(=O)N3C[C@H](OC(C)C)C[C@H]3C(=O)NC3(CC(C)(C)C3)C(=O)N(C)[C@@H](C3CCCC3)C(=O)N(C)[C@H](C(=O)N3CCCC3)CC(=O)N2C)N2CC/C=C\C[C@@H](C2=O)N(C)C(=O)CN(C)C1=O` [PP2596] the “NRAS/KRAS (ratio of KD value with respect to GDP-bound NRAS wild-type protein to KD value with respect to KRAS)” value ([1]; class symbols) was “A (a compound having 10 or more and less than 20 is denoted as A)” and the “HRAS/KRAS (ratio of KD value with respect to GDP-bound HRAS wild-type protein to KD value with respect to KRAS)” value ([2]; class symbols) was “A (a compound having 10 or more and less than 20 is denoted as A)”.
